This note sets out measurements from the supplement of paper PMC3974653.

Counter-ions that a name gives are not always drawn.

For the experiment, the system named is MTT (mouse pheochromocytoma). The experiment in a line: IC50 of cell viability (ATP content). Particulars: (24 or 48 h). The method, boiled down:
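Library compounds were tested at 8 final concentrations (0.5 nM to 46 µM) on MTT mouse pheochromocytoma cells for 24 or 48 hrs, with readout by CellTiter-Glo ATP luminescence. Signals were normalised with positive-control wells at 100% and DMSO wells at 0%. IC50 values were obtained by a four-parameter logistic fit.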
Take `ClC1=CC=C2NC(=O)C\N=C(\C3=CC=CC=C3)C2=C1` [Desmethyldiazepam]: the “IC50 of cell viability” value was more than 46 µM.
The result for `C[C@@H]1C[C@H]2[C@@H]3CCC/4=C/C(=O)/C=C\[C@]4(C)[C@@]3(F)[C@@H](O)C[C@]2(C)[C@H]1C(=O)CO` [Desoximetasone] reads more than 46 µM.
As for `Cc1cccc(Cc2c[nH]cn2)c1C` [Detomidine], the figure is more than 46 µM.
For `N[C@@H](Cc1cc(I)c(Oc2ccc(O)c(I)c2)c(I)c1)C(=O)O` [Detrothyronin], the “IC50 of cell viability” value was more than 46 µM.
As for `C[C@@H]1C[C@@H]2[C@H]3CC\C4=C\C(=O)\C=C/[C@]4(C)[C@]3(F)[C@@H](O)C[C@@]2(C)[C@@]1(O)C(=O)COC(C)=O` [Dexamethasone acetate], the “IC50 of cell viability” value was more than 46 µM.
The result for `CN(C)CC[C@@H](c1ccc(Br)cc1)c1ccccn1` [Dexbrompheniramine maleate salt] reads more than 46 µM.
Consider `CC(C)Cc1ccc([C@H](C)C(=O)O)cc1` [Dexibuprofen], for which the “IC50 of cell viability” value was more than 46 µM.
As for `Br.COc1ccc2c(c1)[C@]13CCCC[C@@H]1[C@H](C2)N(C)CC3.O` [Dextromethorphan hydrobromide monohydrate], the figure is more than 46 µM; as for `CN1CC[C@@]23CCCC[C@@H]2[C@@H]1Cc1ccc(O)cc13` [Dextrorphan tartrate], more than 46 µM; as for `CCCCC(CC)COC(=O)c1ccccc1C(=O)OCC(CC)CCCC` (stereo unspecified) [Di(2-ethylhexyl) phthalate], more than 46 µM.
As for `CC(=O)Nc1ccc(OC(C)=O)cc1` [Diacetamate], the figure is more than 46 µM; as for `CC(=O)Nc1ccc(OCCOCCOc2ccc(NC(C)=O)cc2)cc1` [Diamfenetida], more than 46 µM.
In the case of `CC(=O)Nc1c(I)c(NC(C)=O)c(I)c(C(=O)O)c1I` [Diatrizoic acid dihydrate], the “IC50 of cell viability” value was more than 46 µM.
The result for `CN1C(=O)CN=C(c2ccccc2)c2cc(Cl)ccc21` [Diazepam] reads more than 46 µM.
`CCOP(=S)(OCC)Oc1cc(C)nc(C(C)C)n1` [Diazinon]: the “IC50 of cell viability” value is more than 46 µM.
With `CN(Cc1ccccc1)Cc1ccccc1` [Dibemethine], the “IC50 of cell viability” value was more than 46 µM.
The result for `CN(C)CCN1C(=O)c2ccccc2N(C)c2ccccc21` [Dibenzepina] reads more than 46 µM.
In the case of `N=C(N)c1ccc(OCCCOc2ccc(C(=N)N)cc2Br)c(Br)c1` [Dibromopropamidine Dihydrochloride], the “IC50 of cell viability” value is more than 46 µM.
The result for `CCCCOc1cc(C(=O)NCCN(CC)CC)c2ccccc2n1` [Dibucaine] reads more than 46 µM.
The result for `CC(C)(C)c1ccc2c(S(=O)(=O)[O-])c(C(C)(C)C)ccc2c1` [Dibunic acid] reads more than 46 µM; that for `NCCN.[Cl-].[Cl-].[Pt+2]` [Dichloro(ethylenediamine)platinum(II)], more than 46 µM; that for `O=C(O)C(Cl)Cl` [Dichloroacetic acid], more than 46 µM.
For `N[S+](=O)([O-])c1cc(Cl)c(Cl)c([S+](N)(=O)[O-])c1` [Dichlorphenamide], the “IC50 of cell viability” value is more than 46 µM.
As for `COP(=O)(OC)OC=C(Cl)Cl` [Dichlorvos (Vapona)], the figure is more than 46 µM; as for `O=C(NC(O)C(Cl)(Cl)Cl)NC(O)C(Cl)(Cl)Cl` (stereo unspecified) [Dicloralurea], more than 46 µM.
For the compound `Cc1onc(-c2c(Cl)cccc2Cl)c1C(=O)N[C@@H]1C(=O)N2[C@@H]1SC(C)(C)[C@@H]2C(=O)[O-]` [Dicloxacillin sodium salt monohydrate], the “IC50 of cell viability” value was more than 46 µM.
Regarding `O\C1=C(/C/C2=C(\O)C3=C(OC2=O)C=CC=C3)C(=O)OC4=C1C=CC=C4` [Dicumarol], the “IC50 of cell viability” value is more than 46 µM.
As for `C1CCC(NC2CCCCC2)CC1` [Dicyclohexylamine], the “IC50 of cell viability” value is more than 46 µM.
For the compound `CCN(CC)CCOC(=O)C1(C2CCCCC2)CCCCC1` [Dicyclomine], the “IC50 of cell viability” value was more than 46 µM.
With `C1\C=C/C2C\3CC(\C=C3)C12` (stereo unspecified) [Dicyclopentadiene], the “IC50 of cell viability” value was more than 46 µM.
Turning to `S=C(SSC(=S)N1CCCCC1)N1CCCCC1` [Dicyclopentamethylenethiuram disulfide], the “IC50 of cell viability” value is more than 46 µM.
As for `OC[C@@H]1CC[C@H](n2cnc3c(O)ncnc32)O1` [Didanosine], the figure is more than 46 µM.
As for `ClC/1=C(Cl)/[C@@]2(Cl)[C@H]3[C@H]4C[C@H]([C@@H]5O[C@H]45)[C@H]3[C@]1(Cl)C2(Cl)Cl` [Dieldrin], the “IC50 of cell viability” value is more than 46 µM.
For `C/C=C(\C(=C\C)c1ccc(O)cc1)c1ccc(O)cc1` [Dienestrol], the “IC50 of cell viability” value was more than 46 µM.
The result for `CCOC(=O)c1ccccc1C(=O)OCC` [Diethyl phthalate] reads more than 46 µM.
The result for `CCN(CC)C(=O)N1CCN(C)CC1.O=C(O)CC(O)(CC(=O)O)C(=O)O` [Diethylcarbamazine citrate] reads more than 46 µM.
On to `COCCOCCO` [Diethylene glycol monomethyl ether], for which the “IC50 of cell viability” value was more than 46 µM.
The result for `NCCNCCN` [Diethylenetriamine] reads more than 46 µM; that for `NC(=O)Oc1ccc(Cc2ccccc2)cc1` [Difenano], more than 46 µM.
For the compound `C[C@H]1C[C@H]2[C@@H]3C[C@H](F)C/4=C/C(=O)/C=C\[C@]4(C)[C@@]3(F)[C@@H](O)C[C@]2(C)[C@@]1(OC(C)=O)C(=O)COC(C)=O` [Diflorasone diacetate], the “IC50 of cell viability” value was more than 46 µM.
The result for `O=C(O)c1cc(-c2ccc(F)cc2F)ccc1O` [Diflunisal] reads more than 46 µM; that for `O=C1c2ccccc2CN2C(=O)c3ccccc3CN12` [Diftalone], more than 46 µM; that for `CC1OC(OC2C(O)CC(OC3C(O)CC(OC4CCC5(C)C(CCC6C5CCC5(C)C(C7=CC(=O)OC7)CCC65O)C4)OC3C)OC2C)CC(O)C1O` (stereo unspecified) [Digitoxin], more than 46 µM.
As for `C[C@H]1O[C@H](C[C@H](O)[C@@H]1O)O[C@H]2[C@@H](O)C[C@@H](O[C@@H]2C)O[C@H]3[C@@H](O)C[C@@H](O[C@@H]3C)O[C@H]4CC[C@@]5(C)[C@H](CC[C@@H]6[C@@H]5C[C@@H](O)[C@]7(C)[C@H](CC[C@]67O)C/8=C/C(=O)OC8)C4` [Digoxin], the “IC50 of cell viability” value is more than 46 µM.
With `CC(C)CC1C(=O)N2CCCC2C2(O)OC(NC(=O)C3CC4c5cccc6[nH]cc(c56)CC4N(C)C3)(C(C)C)C(=O)N12` (stereo unspecified) [Dihydroergocriptine], the “IC50 of cell viability” value was more than 46 µM.
As for `CC(C)[C@@]1(NC(=O)[C@@H]2C[C@@H]3c4cccc5[nH]cc(c45)C[C@H]3N(C)C2)O[C@@]2(O)[C@@H]3CCCN3C(=O)[C@H](Cc3ccccc3)N2C1=O` [Dihydroergocristine], the figure is more than 46 µM; as for `COc1ccc2c3c1OC1[C@H](O)CCC4[C@@H](C2)N(C)CC[C@]314` (stereo partly specified) [Dihydroisocodeine], more than 46 µM.
Consider `CN1CC[C@]23c4c5ccc(O)c4OC2C(O)CCC3[C@H]1C5` (stereo partly specified) [Dihydromorphine], for which the “IC50 of cell viability” value was more than 46 µM.
With `CC(C)NC(C)C` [Diisopropyl amine], the “IC50 of cell viability” value was more than 46 µM.
For the compound `C=Cc1ccc(C=C)cc1.C=Cc1ccccc1.CC(C)N(Cc1ccccc1)C(C)C` [Diisopropylaminomethyl-polystyrene], the “IC50 of cell viability” value was more than 46 µM.
As for `CC1(C)OC[C@@H]2O[C@@]3(C(=O)O)OC(C)(C)O[C@@H]3[C@@H]2O1` [Dikegulac], the figure is more than 46 µM.
Turning to `CN(C(=O)C(Cl)Cl)c1ccc(OC(=O)c2ccco2)cc1` [Diloxanide furoate], the “IC50 of cell viability” value is more than 46 µM.
As for `Cc1ccc2c(c1)[C@]13CCCC[C@@H]1[C@@H](C2)N(C)CC3` [Dimemorfan phosphate], the figure is more than 46 µM; as for `CC(O)CN(C)C` (stereo unspecified) [Dimepranolum], more than 46 µM.
Consider `CN(C)CCCN1c2ccccc2C(C)(C)c2ccccc21` [Dimetacrine], for which the “IC50 of cell viability” value was more than 46 µM.
Consider `CCCCc1cc2ccccc2c(OCCN(C)C)n1` [Dimethisoquin hydrochloride], for which the “IC50 of cell viability” value is more than 46 µM.
For the compound `CC(CN1c2ccccc2Sc2ccc([S+](=O)([O-])N(C)C)cc21)N(C)C` (stereo unspecified) [Dimethothiazine], the “IC50 of cell viability” value was more than 46 µM.
The result for `COC(=O)C(Cl)C(=O)OC` [Dimethyl chloromalonate] reads more than 46 µM; that for `COC(=O)c1ccccc1C(=O)OC` [Dimethyl phthalate], more than 46 µM; that for `Nc1ccc(C(=O)Nc2ccccc2N)cc1` [Dinaline], more than 46 µM.
The result for `CCCCC[C@H](O)/C=C\[C@H]1[C@H](C/C=C\CCCC(=O)O)[C@@H](O)C[C@H]1O.COC(N)(CO)CO` [Dinoprost trometamol] reads more than 46 µM; that for `CCCCC[C@H](O)/C=C/[C@@H]1[C@@H](C/C=C\CCCC(=O)O)[C@@H](O)C[C@H]1O` [Dinoprost tromethamine], more than 46 µM.
The result for `O=[N+]([O-])c1cccc([S+](=O)([O-])NCCN[S+](=O)([O-])c2cccc([N+](=O)[O-])c2)c1` [Dinsed] reads more than 46 µM; that for `CCCCCCCCOC(=O)c1ccccc1C(=O)OCCCCCCCC` [Dioctyl phthalate], more than 46 µM; that for `CCCC[C@@H](CC)COC(=O)C[C@H](C(=O)OC[C@H](CC)CCCC)S(=O)(=O)[O-]` [Dioctyl sulfosuccinate sodium salt], more than 46 µM.
As for `COc1ccc(C(=O)c2ccccc2O)c(O)c1` [Dioxybenzone], the “IC50 of cell viability” value was more than 46 µM.
